What was measured:
[1] = test system: PGE2 production from synovial cells of rat; experiment: Activity against the PGE2 production from cultured synovial cell of rat; type: cell-based, rat (Lewis male); conditions: 24 h, cultured rat synovial cells stimulated with neutrophil-originating factor (IL-1-like factor), PGE2 after one day by radioimmunoassay, read-out: Inhibitory activity against PGE2 production from synovial cells of rat IC50
Method: Activity against the PGE2 production from cultured synovial cell of rat
A synovial membrane taken out of the knee joint of a Lewis male rat was treated with collagenase-trypsin to separate off synovial cells. A test compound was added to a system prepared by the subculture of the synovial cells. The cells were stimulated with a neutrophil-originating factor (IL-1-like factor) to induce PGE2 production. After one day, the amount of PGE2 liberated into the culture medium was determined by radioimmunoassay (see R. Hashida et al., Prostaglandins, 27 (1984), 697).

[2] = test system: LTB4 production from human neutrophil; experiment: Activity against LTB4 production from human neutrophil; type: cell-based; conditions: human peripheral blood neutrophils, preincubated 37° C. 5 minutes, calcium ionophore A23187 2 μg/ml, 10 minutes, radioimmunoassay, read-out: Inhibitory activity against LTB4 production from human neutrophil IC50
Method: Activity against LTB4 production from human neutrophil
A test compound was added to a suspension of neutrophil separated from the human peripheral blood and the obtained mixture was preincubated at 37° C. for 5 minutes, followed by the addition of calcium ionophore A23187 in an amount of 2 μg/ml. After 10 minutes, the obtained mixture was cooled to stop the reaction. The amount of LTB4 contained in the supernatant of the reaction mixture was determined by radioimmunoassay (see H. Shirota et al., Arzneim Forsol Drug Res., 37 (1987) 930).

| SMILES | IC50 [1] | IC50 [2] |
| --- | --- | --- |
| C/C=C(\C(=O)O)c1cc(OC)c(O)c2c(Cc3ccccc3)cccc12 [Example 1, (Z)-2-(5-Benzyl-4-hydroxy-3-methoxy-1-naphthyl)-2-butenoic acid] | 420 nM | 510 nM |
| CC/C=C(\C(=O)O)c1cc(OC)c(O)c2c(Cc3ccccc3)cccc12 [Example 2, (Z)-2-(5-Benzyl-4-hydroxy-3-methoxy-1-naphthyl)-2-pentenoic acid] | 620 nM | 320 nM |
| CCC/C=C(\C(=O)O)c1cc(OC)c(O)c2c(Cc3ccccc3)cccc12 [Example 3, (Z)-2-(5-Benzyl-4-hydroxy-3-methoxy-1-naphthyl)-2-hexenoic acid] | 1450 nM | 520 nM |
| COc1cc(/C(=C/C(C)C)C(=O)O)c2cccc(Cc3ccccc3)c2c1O [Example 4, (Z)-2-(5-Benzyl-4-hydroxy-3-methoxy-1-naphthyl)-4-methyl-2-pentenoic acid] | 2760 nM | 1680 nM |
| C=CC/C=C(\C(=O)O)c1cc(OC)c(O)c2c(Cc3ccccc3)cccc12 [Example 5, (Z)-2-(5-Benzyl-4-hydroxy-3-methoxy-1-naphthyl)-2,5-hexadienoic acid] | 1640 nM | 510 nM |
| CCCC/C=C(\C(=O)O)c1cc(OC)c(O)c2c(Cc3ccccc3)cccc12 [Example 7, (Z)-2-(5-benzyl-4-hydroxy-3-methoxy-1-naphthyl)-2-heptenoic acid] | 3100 nM | > 10000 nM |
| COc1cc(/C(=C/c2ccccc2)C(=O)O)c2cccc(Cc3ccccc3)c2c1O [Example 10, (Z)-2-(5-benzyl-4-hydroxy-3-methoxy-1-naphthyl)-3-phenyl-2-propenoic acid] | 2100 nM | 1860 nM |
| COc1cc(/C(=C/Cc2ccccc2)C(=O)O)c2cccc(Cc3ccccc3)c2c1O [Example 11, (Z)-2-(5-benzyl-4-hydroxy-3-methoxy-1-naphthyl)-4-phenyl-2-butenoic acid] | 1880 nM | 1090 nM |
| COc1cc(/C(=C/C2CCCCC2)C(=O)O)c2cccc(Cc3ccccc3)c2c1O [Example 12, (Z)-2-(5-benzyl-4-hydroxy-3-methoxy-1-naphthyl)-3-cyclohexyl-2-propenoic acid] | 3540 nM | 10000 nM |
| COc1cc(/C(=C/C(C)(C)C)C(=O)O)c2cccc(Cc3ccccc3)c2c1O [Example 13, (Z)-2-(5-benzyl-4-hydroxy-3-methoxy-1-naphthyl)-4,4-dimethyl-2-pentenoic acid] | 3350 nM | 830 nM |
| C=C(C(=O)O)c1cc(OC)c(O)c2c(Cc3ccccc3)cccc12 [Example 14, 2-(5-benzyl-4-hydroxy-3-methoxy-1-naphthyl)-2-propenoic acid] | 3230 nM | 720 nM |
| COc1cc(C(C(=O)O)=C(C)C)c2cccc(Cc3ccccc3)c2c1O [Example 15, 2-(5-benzyl-4-hydroxy-3-methoxy-1-naphthyl)-3-methyl-2-butenoic acid] | 1070 nM | 730 nM |
| C/C=C(/C(=O)O)c1cc(OC)c(O)c2c(Cc3ccccc3)cccc12 [Example 40, (E)-2-(5-Benzyl-4-hydroxy-3-methoxy-1-naphthyl)-2-butenoic acid] | 2040 nM | 3160 nM |
| COc1cc(C(C(=O)O)=C(Cl)Cl)c2cccc(Cc3ccccc3)c2c1O [Example 55, 2-(5-Benzyl-4-hydroxy-3-methoxy-1-naphthyl)-3,3-dichloro-2-propenoic acid] | 280 nM | 2350 nM |
